“Also recorded” adds a separate entry of the source. Positions of bridges follow the written chain, without caps; N, C: chain ends. No end group written: not given here.
What was measured:
[1] = system: PKA-II (phospho-RIIα/β) in rat DRG neurons; assay: High-content imaging of PKA-II activity (pRII) in DRG sensory neurons; assay type: cell-based; details: for PKA-II activation: 5 and 30 min, 0.005 to 0.8 µg/µL; for increase in phospho-PKA-II intensity: 5 min; for pRII response by neuron size: xibalbins 0.8 µg/µL
Procedure: (§1) To gauge sensory neuron activity in response to various activating stimuli, including electrical activity, phosphorylation state detection of protein kinase A type II (PKA-II) and MAP kinase Erk1/2 can act as surrogate measurements. Consequently, we tested for increased phosphorylation states in a concentration-dependent manner following exposure to xibalbins. Dissociated DRG neurons were cultured overnight and then exposed to increasing concentrations of the corresponding xibalbins for 5 min and 30 min, respectively. As a positive control, forskolin (Fsk) was also used to induce cAMP synthesis. The activity of PKA-II was monitored by antibodies directed against the phosphorylation site of the inhibitory regulatory subunits RIIα/β, which is exclusively accessible when the catalytic kinase domain is released during kinase activation. For measuring Erk1/2 activity, phospho-sites on Erk1/2 (T202/Y204) were monitored through immunofluorescence, as these sites are phosphorylated during activation. Cellular images were captured using HCI microscopy (Fig. 8A), and the average intensity of each phospho-antibody was quantified (Fig. 8B).
(§2) Fig. 8 A Representative images of rat DRG neurons stimulated with PBS (Ctrl) and xib1b (0.8 µg/µL). Cells were stained for UCHL1, pRII, pERK1/2, and Hoechst followed by fixation and staining with standard immunocytochemistry protocols. Green-encircled neurons indicate automatically selected objects. Scale bar: 100 µm. B Mean intensities of UCHL1, pRII, and pERK1/2. The same UCHL1 intensities were observed among tested groups. Forskolin (Fsk), an activator of adenylyl cyclase, was used as a positive control. Fsk at 6 µM concentration induced an increase in pRII and pERK1/2 intensities at 5 and 30 min. Number of analyzed cells per replica: 750 ± 200. Eight independent replicas. C–F Concentration responses of xibalbin toxins (0.005 to 0.8 µg/µL) and mean intensities of pRII and pERK1/2 at 5 min and 30 min. G–H Size versus pRII and pErk1/2 intensities of cells treated with 0.8 µg/µL of xib1 and xib13. Small-sized cells were responding to xibalbins. Statistical significance was assessed using one-way ANOVA with Dunnett’s post hoc test. Data represent mean ± S.E.M (standard error of the mean), n = 4, see “Methods” for details and Additional File 6: Table S2 for individual data values
(§3) Male Sprague Dawley rats (250–400 g, 8–16 weeks old) were obtained from Envigo. Rats were kept in 12 h of light/darkness cycles. All experiments were performed in accordance with the German animal welfare law with permission of the District Government for Nature and Environment, NRW (84–02.05.20.13.045, 4.18.003). Rats were scarified by slow inhalation of CO2 which was followed by decapitation. DRGs were extracted from rats, deheated, pooled, and incubated in Neurobasal A/B27 medium (Invitrogen, #12349–015) supplemented with B-27 (Invitrogen #17504), L-glutamine 1:400, L-glutamate 1:270.3, and penicillin/streptomycin 1:100 containing 0.2 U/mL collagenase P (collagenase P, Roche, #1213857) and incubated for 1 h at 37 °C, 5% CO2. DRGs were dissociated with pasteur pipettes and axon stumps were separated by BSA (Sigma-Aldrich, # A2153-100G) gradient centrifugation (14% BSA, 120 g, 8 min). Cells were resuspended in NBA medium, plated in 96-well imaging plate (Greiner BioOne Sensoplate, Black, #655896) precoated with poly-L-ornithine hydrochloride (0.1 mg/ml Sigma, #P2533)/laminin (5 µg/ml Invitrogen, #23017–015), and incubated overnight at 37 °C, 5% CO2.
(§4) DRGs were stimulated after overnight incubation. Compounds were prepared as tenfold concentrated stock solutions, diluted in PBS (PAA, cat# H15-002), in v-bottom plates; 50 µL media from culture wells were mixed with the […] stock solutions, and 50 µL added back to the respective wells. Stimulation was performed with automated multichannel pipette and cells were kept in heated block during the stimulation. […]

[2] = system: Erk1/2 (T202/Y204) in rat DRG neurons; assay: High-content imaging of pERK1/2 in DRG sensory neurons; assay type: cell-based; details: for pErk1/2 activation: 5 and 30 min, 0.005 to 0.8 µg/µL; for pErk1/2 response by neuron size: xibalbins 0.8 µg/µL
Procedure: as §1, §2, §3, §4

[3] = 30 min, 0.8 µg/µL (xib13 148 µM, q = 4.32; xib1 154 µM, q = 4.07)

Sequence	PKA-II activation [1]	increase in phospho-PKA-II intensity ([1]; 0.4 µg/µL (74 µM), q = 3.29)	increase in phospho-PKA-II intensity ([1]; 0.8 µg/µL (148 µM), q = 4.17)	change in phospho-PKA-II intensity ([1]; 30 min)	pRII response by neuron size [1]	pErk1/2 activation [2]	increase in pErk1/2 signal ([2]; 5 min, 0.8 µg/µL (148 µM), q = 4.54)	increase in pErk1/2 signal [2, 3]	pErk1/2 response by neuron size [2]
KRSCIRRFGRCDHRPNDCCYNSSCRCNLWGSNCRCQRMGLFQKWGK (disulfide 4-19, 11-24, 18-35, 26-33) [xib13]	increase PKA-II and Erk1/2 sensitization signaling; also recorded: increased PKA-II and pErk1/2 activity	up to 1.21 fold	up to 1.21 fold	No change	increased phosphorylation signals in both small-sized and large-sized sensory neurons	increase PKA-II and Erk1/2 sensitization signaling; also recorded: increased PKA-II and pErk1/2 activity	up to 2.5 fold	≤ 2.3 fold	increased phosphorylation signals in both small-sized and large-sized sensory neurons
RLFCIRHHKYCGHRPKRCCSGLFCRCNTFGTNCRCQSKGALGKLI (disulfide 4-19, 11-24, 18-35, 26-33) [xib1]	increase PKA-II and Erk1/2 sensitization signaling; also recorded: increased PKA-II and pErk1/2 activity	–	–	–	increased phosphorylation signals in both small-sized and large-sized sensory neurons	increase PKA-II and Erk1/2 sensitization signaling; also recorded: increased PKA-II and pErk1/2 activity	–	2.17 fold	increased phosphorylation signals in both small-sized and large-sized sensory neurons

From paper PMC11288129, “Diversely evolved xibalbin variants from remipede venom inhibit potassium channels and activate PKA-II and Erk1/2 signaling” (BMC Biology, 2024)
